Experimental data as given in ChEMBL document CHEMBL1201862, “PubChem BioAssay data set” (2004).
“And” between values parts separate entries of the source, which are not always exact repeats. Equal values may be shown once.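 Tested at 5 concentrations; 48 h exposure; 96-well plates; endpoints linearly interpolated, else capped at highest concentration. The concentration for 50% growth inhibition is given as GI50.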 The source made the active and inactive calls. No stated cut-off is given here; in the data, active = GI50 up to about 1.1 µM and inactive = higher.

Columns and labels:
Assay in all cases: NCI-60 cell line screen, 48 h
CCRF-CEM = system: CCRF-CEM
Hs-578T = system: Hs-578T
SF-539 = system: SF-539
CAKI-1 = system: CAKI-1
A498 = system: A498
NCI-H460 = system: NCI-H460
SNB-75 = system: SNB-75
UACC-257 = system: UACC-257
HCT-15 = system: HCT-15
DU-145 = system: DU-145
LOX IMVI = system: LOX IMVI
MDA-MB-435 = system: MDA-MB-435
A549 = system: A549
MOLT-4 = system: MOLT-4
ACHN = system: ACHN
MDA-N = system: MDA-N
IGROV-1 = system: IGROV-1
OVCAR-8 = system: OVCAR-8
U-251 = system: U-251
SR = system: SR

Compound	GI50 (CCRF-CEM)	GI50 (Hs-578T)	GI50 (SF-539)	GI50 (CAKI-1)	GI50 (A498)	GI50 (NCI-H460)	GI50 (SNB-75)	GI50 (UACC-257)	GI50 (HCT-15)	GI50 (DU-145)	GI50 (LOX IMVI)	GI50 (MDA-MB-435)	GI50 (A549)	GI50 (MOLT-4)	GI50 (ACHN)	GI50 (MDA-N)	GI50 (IGROV-1)	GI50 (OVCAR-8)	GI50 (U-251)	GI50 (SR)
N#CC(c1ccccc1)N(CCc1ccccc1)C(=O)c1ccc(C(=O)N(CCc2ccccc2)C(C#N)c2ccccc2)cc1 (stereo unspecified)	26.1 µM (inactive)	12.9 µM (inactive)	19.5 µM (inactive)	30.6 µM (inactive)	30.5 µM (inactive)	18.5 µM (inactive)	19.3 µM (inactive)	18.1 µM (inactive)	18.6 µM	42.6 µM (inactive)	17.9 µM (inactive)	22.9 µM (inactive)	26.7 µM (inactive)	> 10 µM (inactive)	24 µM (inactive)	24 µM (inactive)	23.9 µM (inactive)	17.6 µM (inactive)	24.3 µM (inactive)	–
COc1cccc2c1CCc1sc(CN3CCN(C)CC3)nc1-2	24.9 µM (inactive)	> 100 µM (inactive)	–	> 100 µM (inactive)	26.7 µM (inactive)	54.7 µM (inactive)	> 100 µM (inactive)	> 100 µM (inactive)	83.6 µM	> 100 µM (inactive)	–	63.5 µM (inactive)	> 100 µM (inactive)	22.4 µM (inactive)	> 100 µM (inactive)	55.5 µM (inactive)	> 100 µM (inactive)	> 100 µM (inactive)	> 100 µM (inactive)	–
COC1OC(COC(=O)NCCCCC(=O)C(F)(F)C(F)(F)C(F)(F)C(F)(F)C(F)(F)C(F)(F)C(F)(F)F)C(O)C(O)C1O (stereo unspecified)	–	15.2 µM (inactive) and 17.7 µM (inactive)	18 µM (inactive) and 15.5 µM (inactive)	16.4 µM (inactive) and 17.2 µM (inactive)	–	22.4 µM (inactive) and 16.8 µM (inactive)	14.4 µM (inactive) and 15.8 µM (inactive)	16.9 µM (inactive) and 16.6 µM (inactive)	18.5 µM and 19.4 µM	–	14.2 µM (inactive) and 15.9 µM (inactive)	15.8 µM (inactive) and 16.6 µM (inactive)	17.9 µM (inactive) and 15.6 µM (inactive)	–	15.6 µM (inactive) and 16.4 µM (inactive)	24 µM (inactive) and 26.4 µM (inactive)	16.5 µM (inactive) and 14.3 µM (inactive)	–	19.3 µM (inactive) and 11.9 µM (inactive)	30.3 µM (inactive) and 42.9 µM (inactive)
COc1cc(/C=C/C(=O)c2ccc(NS(=O)(=O)c3cc([N+](=O)[O-])ccc3C)cc2)cc(OC)c1OC	2.2 µM (inactive)	–	2.18 µM (inactive)	3.74 µM (inactive)	–	–	4.39 µM (inactive)	7.53 µM (inactive)	3.04 µM	3.13 µM (inactive)	3.29 µM (inactive)	3.71 µM (inactive)	3.81 µM (inactive)	1.85 µM (inactive)	4.38 µM (inactive)	3.62 µM (inactive)	3.88 µM (inactive)	2.49 µM (inactive)	3.37 µM (inactive)	1.82 µM (inactive)
NCCCNCCCNCCCN	–	–	–	> 100 µM (inactive)	> 100 µM (inactive)	–	–	> 100 µM (inactive)	> 100 µM	> 100 µM (inactive)	> 100 µM (inactive)	> 100 µM (inactive)	> 100 µM (inactive)	14.9 µM (inactive)	> 100 µM (inactive)	> 100 µM (inactive)	> 100 µM (inactive)	> 100 µM (inactive)	> 100 µM (inactive)	18.8 µM (inactive)
CN(C)C(=N)/N=C(\N)Nc1cccc(Cl)c1	–	> 100 µM (inactive)	47.8 µM (inactive)	48.2 µM (inactive)	–	91.6 µM (inactive)	91.2 µM (inactive)	90.8 µM (inactive)	> 100 µM	–	35.9 µM (inactive)	> 100 µM (inactive)	> 100 µM (inactive)	> 100 µM (inactive)	55.5 µM (inactive)	83.9 µM (inactive)	24.5 µM (inactive)	61.4 µM (inactive)	> 100 µM (inactive)	53.2 µM (inactive)
C=C(C)[C@H]1[C@@H]2OC(=O)[C@H]1[C@]1(O)C[C@H]3OC34C(=O)O[C@H]2[C@@]41C.CC(C)(O)[C@H]1[C@@H]2OC(=O)[C@H]1[C@]1(O)C[C@H]3OC34C(=O)O[C@H]2[C@@]41C (stereo partly specified)	> 100 µM (inactive)	> 100 µM (inactive)	> 100 µM (inactive)	> 100 µM (inactive)	> 100 µM (inactive)	> 100 µM (inactive)	> 100 µM (inactive)	> 100 µM (inactive)	> 100 µM	> 100 µM (inactive)	> 100 µM (inactive)	> 100 µM (inactive)	> 100 µM (inactive)	> 100 µM (inactive)	> 100 µM (inactive)	> 100 µM (inactive)	> 100 µM (inactive)	> 100 µM (inactive)	> 100 µM (inactive)	–
N#Cc1nc(NC(=O)c2ccccc2)sc1N	4.54 µM (inactive)	–	> 10 µM (inactive)	> 10 µM (inactive)	> 10 µM (inactive)	> 10 µM (inactive)	> 10 µM (inactive)	> 10 µM (inactive)	> 10 µM	> 10 µM (inactive)	> 10 µM (inactive)	> 10 µM (inactive)	> 10 µM (inactive)	3.27 µM (inactive)	> 10 µM (inactive)	> 10 µM (inactive)	> 10 µM (inactive)	> 10 µM (inactive)	> 10 µM (inactive)	> 6.01 µM (inactive)
Sc1nnc(NNc2ccccc2)n1Nc1ccccc1	8.97 µM (inactive)	> 64.3 µM (inactive)	> 42.5 µM (inactive)	> 36.9 µM (inactive)	39.4 µM (inactive)	0.146 µM (active)	> 44.7 µM (inactive)	0.283 µM (active)	2.1 µM	> 79.4 µM (inactive)	–	0.321 µM (active)	8.97 µM (inactive)	0.625 µM (active)	0.824 µM (active)	2.05 µM (inactive)	19.8 µM (inactive)	21.2 µM (inactive)	21.1 µM (inactive)	–
CCn1c2ccccc2c2cc(NC(=O)c3c(C)nc(O)nc3NCCNCCO)ccc21	> 100 µM (inactive)	> 100 µM (inactive)	> 100 µM (inactive)	> 100 µM (inactive)	> 100 µM (inactive)	> 100 µM (inactive)	> 100 µM (inactive)	> 100 µM (inactive)	> 100 µM	> 100 µM (inactive)	> 100 µM (inactive)	> 100 µM (inactive)	> 100 µM (inactive)	> 100 µM (inactive)	> 100 µM (inactive)	> 100 µM (inactive)	> 100 µM (inactive)	> 100 µM (inactive)	> 100 µM (inactive)	–
COC(=O)/C=C\n1c(C)cc(=O)[nH]c1=O	> 100 µM (inactive)	> 100 µM (inactive)	> 100 µM (inactive)	–	> 100 µM (inactive)	> 100 µM (inactive)	58.2 µM (inactive)	> 100 µM (inactive)	> 100 µM	–	–	> 100 µM (inactive)	> 100 µM (inactive)	> 100 µM (inactive)	> 100 µM (inactive)	> 100 µM (inactive)	> 100 µM (inactive)	> 100 µM (inactive)	> 100 µM (inactive)	> 100 µM (inactive)
CCc1ccc2c(c1)CC1(C2)Cc2cc3c(cc2C1)C(=O)CC3 (stereo unspecified)	2.94 µM (inactive)	> 100 µM (inactive)	18 µM (inactive)	–	10.9 µM (inactive)	–	–	8.39 µM (inactive)	23.9 µM	–	15.4 µM (inactive)	2.69 µM (inactive)	24.2 µM (inactive)	–	17.9 µM (inactive)	2.25 µM (inactive)	17.3 µM (inactive)	21.9 µM (inactive)	18.8 µM (inactive)	–
O=C(N/N=C/c1ccccc1O)c1ccccc1Nc1ccccc1C(=O)N/N=C/c1ccccc1O	0.931 µM (active)	–	2.19 µM (inactive)	0.617 µM (active)	> 100 µM (inactive)	0.371 µM (active)	3.09 µM (inactive)	2.97 µM (inactive)	0.329 µM	2.25 µM (inactive)	0.154 µM (active)	2.41 µM (inactive)	1.62 µM (inactive)	0.102 µM (active)	0.394 µM (active)	> 100 µM (inactive)	0.458 µM (active)	0.647 µM (active)	3.48 µM (inactive)	0.566 µM (active)
Cc1c(C#N)c(N)n(C2OC(CO)C(O)C(O)C2O)c(=S)c1C#N (stereo unspecified)	> 100 µM (inactive)	> 100 µM (inactive)	> 100 µM (inactive)	–	> 100 µM (inactive)	> 100 µM (inactive)	> 100 µM (inactive)	> 100 µM (inactive)	> 100 µM	> 100 µM (inactive)	> 100 µM (inactive)	–	> 100 µM (inactive)	> 100 µM (inactive)	> 100 µM (inactive)	> 100 µM (inactive)	> 100 µM (inactive)	> 100 µM (inactive)	> 100 µM (inactive)	> 100 µM (inactive)
O=c1[nH]c2ccccc2c2nc3ccccc3n12	> 100 µM (inactive)	65.6 µM (inactive)	24.4 µM (inactive)	6.37 µM (inactive)	> 100 µM (inactive)	2.54 µM (inactive)	–	38.1 µM (inactive)	> 100 µM	> 100 µM (inactive)	> 100 µM (inactive)	> 100 µM (inactive)	33.2 µM (inactive)	36.9 µM (inactive)	7.03 µM (inactive)	> 100 µM (inactive)	0.61 µM (active)	> 100 µM (inactive)	46.1 µM (inactive)	–
